From patent US8119667B2, “Carbonates of fenicol antibiotics” (Schering-Plough Animal Health Corporation, priority 2005, dated 2012)
Values after ≈ are worked out from the molar mass of the structure shown. Where two headings read alike, the source gives them in different places.

Key:
[1] = In vivo release of florfenicol: plasma levels after prodrug administration to cattle; details: for AUC: bovine, plasma, sc, 40 mg/kg
Experimental: The pharmacokinetic profile of active antibiotic after prodrug administration, in vivo, was determined, as follows: • 1. In vivo release of active antibiotic confirmed in two different animal species: • The prodrug compound of Example 18 was administered by an intravenous (“IV”) route to rat and cattle subjects, followed by determination of florfenicol concentrations in the plasma collected over time. • The data of Table 8, below, illustrates the plasma levels of florfenicol that resulted following IV administration of the prodrug compound of Example 18, to both rat and cattle. • 2. Active antibiotic is released from the prodrug irrespective of route of administration of the prodrug: • The data of Table 9, below, illustrates the plasma levels of florfenicol that resulted following administration of the prodrug compound of Example 2, by two different routes, i.e., IV and subcutaneous (“SC”). • 3. A dose-dependant increase in the release of active moiety: • The data of table 10, below, confirms a dose-dependent increase in the plasma levels of active antibiotic (florfenicol) following administration of rising doses of prodrug compound of Example 2. • 4. Time of release of active moiety: • a. […] The data of tables 13 and 14, below, confirms that the active antibiotic is quickly released from the prodrug compound of Example 2, when administered by the IV and SC routes in cattle. The release kinetics of the compound of Example 2 were compared with administration in a formulation with a triacetin/benzyl alcohol (ratio of 2:1 wt/vol) and with administration in a formulation of triacetin/2-pyrrolidinone (ratio of 2:1 wt/vol). The study was conducted in cattle (n=3).

[2] = Syringeability of dosing solutions (dripping-syringe method); assay type: physicochemical
Experimental: Table 4, below, provides evaluations of the syringeability of dosing solutions of selected florfenicol benzylic carbonate prodrugs at concentrations equivalent to 300 mg/ml florfenicol (30% weight/volume).
High concentrations of fenicol or fenicol drug contained in a fenicol prodrug are often necessary for convenient administration of the necessary amount of the desired amount of the antibiotic. Due to the limited solubility of fenicols in many organic solvents or mixtures of solvents acceptable for injectable formulations the choice of solvents for preparation of highly concentrated florfenicol solutions is limited. As a result highly concentrated solutions of fenicol drugs in organic solvents or solvent mixtures may become highly viscous and difficult to administer by a syringe. Therefore the ability of fenicol benzylic carbonate prodrugs to dissolve in a wider range of organic solvents or mixtures of solvents acceptable for injectable formulations offered the potential to prepare highly concentrated solutions for injections with lower viscosity. […] Test solutions of florfenicol benzylic carbonates containing concentrations of florfenicol (mg/mL) equivalent to the concentration present in Nuflor® formulation were prepared. Syringeabilities of the solutions were evaluated by means of the “dripping syringe” method in which the dripping times (sec) of equal volumes of such solutions under free gravitational flow conditions from a vertically positioned syringe were measured at 15° C. After removing the plunger from a 5 ml polyethylene disposable syringe (5 ml Luer, Norm-Ject Zentrish/Henke Saas Wolf GMBH) and fitting the syringe with a disposable needle (B-D® 16G1 Precision Glide/BentonDickinson & CO) the test solutions were loaded from the top into the syringe and the time necessary for the free flow of 2 mL of solution (between 3 ml and 1 ml marks) was recorded in triplicate. The syringeabilities relative to Nuflor® were calculated by dividing the dripping time for the test solutions (entries 1-12) by the dripping time measured for the commercial sample of Nuflor® formulation (entry 13) As it is evident from the results in Table 4 the syringeabilities of tested solutions containing benzyl alcohol as viscosity diluent had relative syringeabilities <1.00 and were therefore better than Nuflor® (30% weight/volume florfenicol solution in propylene glycol/polyethylene glycol 300/2-methyl pyrolidinone). Due to their better syringeability these solutions represent more favorable formulations for injectable delivery of florfenicol. Solution of the florfenicol benzylic carbonate of the example 2 in triacetin/2-pyrolidinone—1/1 lacking the benzyl alcohol viscosity diluent was the only solution with syringeability poorer that than that of Nuflor® (entry 5).

[3] = Syringeability of dosing solutions (dripping-syringe method); assay type: physicochemical; details: 418 mg/ml (35% weight by volume florfenicol); Triacetin/benzyl alcohol - 2:1; 15° C.
[4] = Aqueous solubility; assay type: physicochemical; details: aqueous medium (not further specified)
Experimental: In some therapeutic applications florfenicol is administered in concentrated organic solution subcutaneously where it is known to form localized depot of the drug which results in the desired sustained release of the drug into the circulation. In such cases solubility of florfenicol in aqueous media represents one of important factors determining the rate of the sustained release. Another important factor affecting the sustained release of florfenicol from the subcutaneous depot site is the concentration of the dosing solution and the solvent composition of the formulation. Apart from the broader range of solvents which can be used for acceptable formulations of florfenicol benzylic carbonate prodrugs these prodrugs also allow a wide range of aqueous solubilities. Solubilities achieved with these prodrugs range from slightly to dramatically lower than that of florfenicol. Reduced aqueous solubilities of such prodrugs may be useful in controlling the rate of dissolution of the prodrug at the subcutaneous depot site and may allow achieving optimized sustained release of the parent drug.

[5] = Solubility in triacetin/benzyl alcohol 2:1 (volume/volume) solvent mixture; assay type: physicochemical; details: 20° C.
Experimental: Florfenicol parent drug was not soluble in triacetin/benzyl alcohol 2:1 (volume/volume) even at concentrations as low as 10% (weight/volume). […] The combination of prodrug of Example 14 at 275 mg/ml and florfenicol at 100 mg/ml was soluble in triacetin/benzyl alcohol 2:1 (volume/volume) and provided a stable solution with 30% (weight/volume) content of florfenicol (Table 4, supra, entry 12).

[6] = 358 mg/ml, 2-pyrolidinone/benzyl alcohol - 1:1, 15° C.
[7] = 358 mg/ml, Triacetin/2-pyrolidinone - 1:1, 15° C.
[8] = 358 mg/ml, Triacetin/benzyl alcohol - 2:1.5, 15° C.

CCOC(=O)O[C@H](c1ccc(S(C)(=O)=O)cc1)[C@@H](CF)NC(=O)C(Cl)Cl [Example 2, (1R,2S)-2-(2,2-dichloroacetamido)-3-fluoro-1-(4-(methylsulfonyl)phenyl)propyl ethyl carbonate]
time of release of active antibiotic (florfenicol) after administration ([1]; IV): less than half an hour
AUC ([1]; subcutaneous administration, read-out: Total Average AUC of the compound of Example 2 (unchanged prodrug)): 38000 ng·h/mL
AUC ([1]; subcutaneous administration, read-out: Total Average AUC of the compound of Example 2 as Florfenicol Equivalent): 30400 ng·h/mL
converted to Florfenicol once absorbed from SC site ([1]; subcutaneous administration): 83.5%
Syringeability measurement: Dripping time [2, 6]: 108 ± 1 s
Syringeability measurement: Relative to NUFLOR [2, 6]: 0.46
Syringeability measurement: Dripping time [2, 7]: 268 ± 4 s
Syringeability measurement: Relative to NUFLOR [2, 7]: 1.15
Syringeability measurement: Dripping time [2, 8]: 97 ± 1 s
Syringeability measurement: Relative to NUFLOR [2, 8]: 0.42
Syringeability measurement: Relative to NUFLOR ([2]; prodrug concentration equivalent to 300 mg/ml florfenicol, Triacetin/benzyl alcohol - 2:1 (vol/vol), 15° C.): 0.55
Syringeability measurement: Dripping time ([2]; prodrug concentration equivalent to 300 mg/ml florfenicol, Triacetin/benzyl alcohol - 2:1 (vol/vol), free flow of 2 mL at 15° C.): 128 ± 7 s
melting point: 110 to 112 °C
Syringeability measurement: Dripping time [3]: 207 ± 3 s
Syringeability measurement: Relative to NUFLOR [3]: 0.89
solubility [4]: 690 µg/mL (≈ 1600 µM)
Solubility at selected concentration of contained florfenicol ([5]; 10% weight/volume florfenicol): soluble
Solubility at selected concentration of contained florfenicol ([5]; 20% weight/volume florfenicol): soluble
Solubility at selected concentration of contained florfenicol ([5]; 25% weight/volume florfenicol): soluble
Solubility at selected concentration of contained florfenicol ([5]; 30% weight/volume florfenicol): soluble
Solubility at selected concentration of contained florfenicol ([5]; 35% weight/volume florfenicol): soluble
Solubility at selected concentration of contained florfenicol ([5]; 37% weight/volume florfenicol): soluble
Solubility at selected concentration of contained florfenicol ([5]; 40% weight/volume florfenicol): insoluble
